Counter-ions that a name gives are not always drawn. Like-named read-outs stand apart in the source and are kept apart here.
How the values were obtained:
[1] = Oral bioavailability in rat (Test III); assay type: in vivo; settings: for plasma concentration of VSA 671 after VSA 671 has been given as 6-deoxy prodrug or ester: in words
Method: (§1) TEST III--ORAL BIOAVAILABILITY
(§2) Oral bioavailability was determined by dosing the animals (cynomologous monkeys and rats) intravenously and orally on separate occasions with the compounds. Blood samples were taken after appropriate intervals for determination of drug level in plasma. Appropriate pharmacokinetic calculations were then carried out based on plasma concentration against time relationship.

[2] = test system: HIV (HTLV-IIIB) in H9 cells; experiment: Effect of compounds on HIV multiplication in H9 cells (Test I); assay type: cell-based, human immunodeficiency virus (HTLV-IIIB); settings: 6-7 days, read-out: Concentration (μM) for 50% inhibition (IC50) of human immuno deficiency virus multiplication in cell culture
Method: Materials and Methods: HIV Infection of H9 Cells H9 cells, 10^5 cells per well on a 24 well plate, suspended in 2 ml RPMI-medium containing 10% fetal calf serum, 100 μg/ml pencillin, 10 μg/ml streptomycin sulfate and 2 μg/ml polybrene are exposed to HIV (HTLV-IIIB) and different concentrations of the test compounds. The plates are incubated at 37° C. in 5% CO2 for 6-7 days. The contents in each well is then homogenized with a pipette and transferred to a centrifuge tube. After centrifugation for 10 min at 1500 rpm the supernatant is removed and the cell pellet is analyzed by fixing in methanol on glass plates. Human HIV positive serum diluted 1:80 or 1:160 is added and incubated for 30 min at 37° C. The pate is then washed with phosphate-buffered saline (PBS) containing Ca2+ and Mg2+. Sheep antihuman conjugate (FITC) is added and after a new incubation the plate is again washed with PBS. Contrast staining is done with Evans blue and after drying the frequency of HIV antigen containing cells is determined in a microscope.

[3] = Cellular toxicity, inhibition of H9 cell multiplication (Test II); assay type: cell-based; settings: human, H9 cells
Method: (§3) Test II--Cellular Toxicity
H9 cells, 2×10^7 cells per plate, are incubate in RPMI-1640 medium containing 10% fetal calf serum, 70 mg/l penicillin, 100 mg/l streptomycin and 10 mM hepes, in absence or presence of test compounds. The number of cells per plate is determined after 48 h. Cells incubated in the absence of test compounds then underwent two cell division cycles.
(§4) F5000 cells, which are human embryo cells, 1×10^5 cells per plate, are incubated in Eagle's minimal essential medium, supplemented with Earle's salts, non-essential amino acids, 10% fetal calf serum, 10 mM hepes, 70 mg/l penicillin and 100 mg/l streptomycin, in absence or presence of test compounds. The number of cells per plate is determined after 48 h. Cells incubated in the absence of test compounds underwent one cell division cycle.

[4] = Cellular toxicity, inhibition of F5000 cell multiplication (Test II); assay type: cell-based; settings: human, f5000 cells
Method: as §3, §4

[5] = Oral bioavailability in monkey (Test III); assay type: in vivo, cynomologous monkeys
Method: as §1, §2

[6] = Human immunodeficiency virus 1, IIIB, H9, H9 cells
[7] = plasma AUC relative to AUC after intravenously given VSA 671, read-out: Oral bioavailability F of compound determined as VSA 671

With `Nc1ncc2ncn(CC(CO)CCO)c2n1` (stereo not drawn) [VSB 212, 2-(2-Aminopurin-9yl)methyl butan-1,4-diol] the “plasma concentration of VSA 671 after VSA 671 has been given as 6-deoxy prodrug or ester” value [1] was “significantly increased”.

Work on `Nc1nc2c(ncn2CC(CO)CCO)c(=O)[nH]1` (single isomer, unassigned; (+)) [VSB 648, (+)-9-[4-hydroxy-2(hydroxymethyl)butyl]-guanine] yielded an IC50 ([2]; H9 cells) of 1 to 5 µM.

For `CCC(=O)OCCC(COC(=O)CC)Cn1cnc2c(=O)[nH]c(N)nc21` (stereo not drawn) [VSC 641, 9-[4-propionoxy-2-(propionoxymethyl)butyl]guanine.HCl], the “plasma concentration of VSA 671 after VSA 671 has been given as 6-deoxy prodrug or ester” value [1] was “significantly increased”.

In the case of `CC(=O)OCCC(COC(C)=O)Cn1cnc2c(=O)[nH]c(N)nc21` (stereo not drawn) [VSC 640, 9-[4-acetoxy-2-(acetoxymethyl)butyl]guanine.HCl], the “plasma concentration of VSA 671 after VSA 671 has been given as 6-deoxy prodrug or ester” value [1] is reported as “significantly increased”.

`Nc1nc2c(ncn2CC(CO)CCO)c(=O)[nH]1` (racemic) [VSA 671, 9-[4-hydroxy-2-(hydroxymethyl)butyl]guanine] gave an IC50 [2, 6] of 1 to 10 µM, an inhibition at 48 h, 500 µM ([3]; 500 μM) of 55% and an inhibition at 48 h, 1000 µM ([4]; 1000 μM) of 55%. It also gave a bioavailability [5, 7] of 10% and a bioavailability [1, 7] of 11%.

Compound `Nc1ncnc2c1ncn2CC(CO)CCO` (stereo not drawn) [VSC 600, 9-(4-Hydroxy-2-hydroxymethylbutyl)adenine] has an IC50 [2, 6] of 10 µM, an inhibition at 48 h, 200 µM ([3]; 200 μM) of 25% and an inhibition at 48 h, 500 µM ([4]; 500 μM) of 25%.

In the case of `CC(=O)OCCC(COC(C)=O)Cn1cnc2cnc(N)nc21` (stereo not drawn) [VSC 610, 2-(2-Aminopurin-9-yl)methylbutane-1,4-diol diacetate], the “plasma concentration of VSA 671 after VSA 671 has been given as ester of 6-deoxy prodrug” value ([5]; in words) is reported as “significantly increased”.

Work on `Nc1nc2c(ncn2CC(CO)CCO)c(=O)[nH]1` (single isomer, unassigned; (-)) [VSB 647, (-)-9-(4-Hydroxy-2-hydroxymethylbutyl)guanine] yielded an IC50 ([2]; H9 cells) of 0.1 to 7 µM and an inhibition at 48 h, 100 µM ([3]; 100 μM) of 5%.

Source: patent US5284837A, “Derivatives of purine, process for their preparation and a pharmaceutical preparation” (Medivir AB, priority 1988, dated 1994)
